Experimental findings from US4327097A, “Novel penicillins” (Toyama Chemical Co., Ltd., priority 1974, dated 1982) are described below.

Molecules are shown by their SMILES. In brackets after ≈: the same amount, converted by molar mass. Where only a bound is given, the exact number is not on record here.

Assay [1] deals with β-lactamase, Pseudomonas aeruginosa GN 238. The experiment in a line: Resistant activity against β-lactamase, iodometric assay. It is filed as biochemical. The settings on record: β-lactamase from Pseudomonas aeruginosa GN 238; Potassium Penicillin G = 100. The procedure:
(3) Resistant activity against β-lactamase, Pseudomonas aerugionsa GN 238:
The resistant activity of each compound against β-lactamase was measured in the manner described below.
β-Lactamase was prepared from Pseudomonas aeruginosa GN 238. This microorganism was cultured in 100 ml of a medium containing 2 g of yeast extract, 10 g of polypeptone, 2 g of glucose, 7 g of disodium hydrogen phosphate, 2 g of potassium dihydrogen phosphate, 1.2 g of ammonium sulfate and 0.4 g of magnesium sulfate, per liter, in a 500-ml Erlenmeyer flask for 6 hrs. at 37° C. with shaking. The resulting cells were collected by centrifugation (5,000 r.p.m.×10 min.), washed three times with 0.1 M phosphate buffer (pH 7.0). Subsequently, the cells were subjected to sonication (20 KHz, 20 min.) and then centrifuged at 15,000 r.p.m. for 60 min. By using the supernatant of enzyme fluid, the resistance of each compound against β-lactamase was determined by the iodometric assay method. Each numeral shown in Table 7 is a relative activity value calculated by assuming as 100 the activity of the control Potassium Penicillin G.

A further assay concerns Staphylococcus aureus. The experiment in a line: MIC against clinical isolates. It is filed as cell-based. The settings on record: Table 5-1, clinical isolate; unit assumed.
The next assay relates to Escherichia coli. As to the kind of experiment: MIC against clinical isolates. It is filed as cell-based. The settings on record: Table 5-2, clinical isolate; unit assumed.
A further assay deals with Pseudomonas aeruginosa. As to the kind of experiment: MIC against clinical isolates. It is filed as cell-based. The settings on record: unit assumed.
A further assay deals with Proteus vulgaris 3027. As to the kind of experiment: MIC, plate method, standard strains. It is filed as cell-based. The settings on record: Table 3, standard strain; unit assumed. Put shortly: (§1)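 Heart infusion agar, pH 7.4, plate method. Inoculum: 10^4 cells/plate (10^6 cells/ml). Read-out: MIC.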
A further assay has as its system Escherichia coli NIHJ. As to the kind of experiment: MIC, plate method, standard strains. It is filed as cell-based. The settings on record: Table 3, standard strain; unit assumed. The method in brief: as §1
For another assay, the system named is Proteus mirabilis. The experiment in a line: MIC against clinical isolates. The settings on record: Table 5-6, clinical isolate; unit assumed. It is filed as cell-based.
Assay [2] concerns Klebsiella pneumoniae. The experiment in a line: MIC against clinical isolates. It is filed as cell-based. The settings on record: Table 5-4, clinical isolate; unit assumed.
For the next assay, the system named is Proteus vulgaris. As to the kind of experiment: MIC against clinical isolates. The settings on record: Table 5-6, clinical isolate; unit assumed. It is filed as cell-based.
For another assay, the system named is Shigella flexneri. As to the kind of experiment: MIC against clinical isolates. It is filed as cell-based. The settings on record: Table 5-5, clinical isolate; unit assumed. Here is the method: (§2) The minimum inhibitory concentration (MIC) was determined by the plate method disclosed in "Chemotherapy" (Japan), Vol. 16, (1968), pages 98-99. The culture medium used was a Heart infusion agar (pH 7.4). The number of the cells per plate used in the inoculum was 10^4 (10^6 cells/ml).
(§3) MIC was determined in the same manner as in the preceding paragraph (1).

The next assay deals with Shigella sonnei. The experiment in a line: MIC against clinical isolates. The settings on record: Table 5-5, clinical isolate; unit assumed. It is filed as cell-based. The procedure: as §2, §3
A further assay concerns Salmonella typhi-murium. The experiment in a line: MIC against clinical isolates. The settings on record: Table 5-5, clinical isolate; unit assumed. It is filed as cell-based.
For assay [3], the system named is Klebsiella pneumoniae. As to the kind of experiment: MIC, plate method, standard strains. It is filed as cell-based. The settings on record: Table 3, standard strain; unit assumed. The method in brief: as §1
Assay [4] relates to Staphylococcus aureus 209p. The experiment in a line: MIC, plate method, standard strains. It is filed as cell-based. The settings on record: Table 3, standard strain, Heart infusion agar pH 7.4; unit assumed. The method in brief: as §1
The test system of a further assay is Proteus morganii. As to the kind of experiment: MIC against clinical isolates. The settings on record: Table 5-6, clinical isolate; unit assumed. It is filed as cell-based.

`CCCCCN1CCN(C(=O)NC(C(=O)NC2C(=O)N3C2SC(C)(C)C3C(=O)O)c2ccccc2)C(=O)C1=O` (single isomer, unassigned) [Compound 45]: the “Relative activity (%), resistant activity against β-lactamase” value in assay [1] was 16%. Moreover, in the assay with Staphylococcus aureus, the MIC Staphylococcus aureus F-2 was 1.57 µg/mL (≈ 2.81 µM), the MIC Staphylococcus aureus F-3 amounted to 1.57 µg/mL (≈ 2.81 µM) and the MIC Staphylococcus aureus F-5 was greater than 200 µg/mL. In the assay with Escherichia coli, this compound came in with an MIC Escherichia coli GN 3452 of 1.57 µg/mL (≈ 2.81 µM), an MIC Escherichia coli GN 3481 of 1.57 µg/mL (≈ 2.81 µM), an MIC Escherichia coli GN 3611 greater than 200 µg/mL and an MIC Escherichia coli K-2 of 1.57 µg/mL (≈ 2.81 µM). This compound returned an MIC Escherichia coli K-3 in the assay with Escherichia coli of 200 µg/mL (≈ 357 µM). In the assay on Pseudomonas aeruginosa (Table 5-3, clinical isolate), this compound returned an MIC Pseudomonas aeruginosa GN 1035 of 50 µg/mL (≈ 89.3 µM). Also, the MIC Pseudomonas neruginosa S-3 in the assay on Pseudomonas aeruginosa (Table 5-4, clinical isolate) was determined as 50 µg/mL (≈ 89.3 µM). This compound also displayed an MIC Proteus vulgaris 3027 in the assay on Proteus vulgaris 3027 of 0.4 µg/mL (≈ 0.715 µM). The same compound displayed an MIC Esche--richin coil NIHJ against Escherichia coli NIHJ of less than 0.1 µg/mL. The compound also displayed an MIC Proteus mirabilis in the assay with Proteus mirabilis of less than 0.4 µg/mL. The compound further showed an MIC Klebsiella pneumoniae GN 917 in the assay with Klebsiella pneumoniae [2] of 1.57 µg/mL (≈ 2.81 µM). Further, the MIC Proteus vulgaris in the assay on Proteus vulgaris is less than 0.4 µg/mL. In the assay on Shigella flexneri, this compound registered an MIC Shigella flexneri JS 11215 of 25 µg/mL (≈ 44.7 µM) and an MIC Shigella flexneri JS 11839 of 1.57 µg/mL (≈ 2.81 µM). In the assay with Shigella sonnei, this compound had an MIC Shigella sonnei JS 11232 of 25 µg/mL (≈ 44.7 µM) and an MIC Shigella sonnei JS 11755 of 1.57 µg/mL (≈ 2.81 µM). In the assay on Salmonella typhi-murium, this compound showed an MIC Salmonella typhi-murium SL 2136 of 200 µg/mL (≈ 357 µM).

For the compound `CCCCN1CCN(C(=O)NC(C(=O)NC2C(=O)N3C2SC(C)(C)C3C(=O)O)c2ccccc2)C(=O)C1=O` (single isomer, unassigned) [Compound 39], the “Relative activity (%), resistant activity against β-lactamase” value in [1] is recorded as 15%. In the assay on Staphylococcus aureus, the MIC Staphylococcus aureus F-2 is 1.57 µg/mL (≈ 2.88 µM), the MIC Staphylococcus aureus F-3 was 1.57 µg/mL (≈ 2.88 µM), the MIC Staphylococcus aureus F-5 is greater than 200 µg/mL and the MIC Staphylococcus aureus MS 8588 amounted to 1.57 µg/mL (≈ 2.88 µM). Also, the MIC Staphylococcus aureus MS 8596 in the assay with Staphylococcus aureus is 1.57 µg/mL (≈ 2.88 µM). In the assay on Escherichia coli, this compound yielded an MIC Escherichia coli GN 3481 of 1.57 µg/mL (≈ 2.88 µM), an MIC Escherichia coli GN 3611 greater than 200 µg/mL, an MIC Escherichia coli K-1 of 1.57 µg/mL (≈ 2.88 µM) and an MIC Escherichia coli K-2 of 1.57 µg/mL (≈ 2.88 µM). Moreover, the MIC Escherichia coli K-3 against Escherichia coli is greater than 200 µg/mL. Also, in the assay on Klebsiella pneumoniae [3], the MIC Klebsiella pneumoniae came to 1.57 µg/mL (≈ 2.88 µM). Further, the MIC Proteus vulgaris 3027 in the assay with Proteus vulgaris 3027 came out at 0.4 µg/mL (≈ 0.733 µM). The MIC Staphylococcus aureus 209p in assay [4] was found to be 0.4 µg/mL (≈ 0.733 µM). In the assay on Escherichia coli NIHJ, this compound showed an MIC Esche--richin coil NIHJ of less than 0.1 µg/mL. The compound further registered an MIC Proteus mirabilis against Proteus mirabilis of less than 0.4 µg/mL. This compound displayed an MIC Klebsiella pneumoniae GN 917 with Klebsiella pneumoniae [2] of 1.57 µg/mL (≈ 2.88 µM). In addition, in the assay on Proteus vulgaris, the MIC Proteus vulgaris was less than 0.4 µg/mL. Further, in the assay on Shigella flexneri, the MIC Shigella flexneri JS 11215 amounted to 25 µg/mL (≈ 45.8 µM) and the MIC Shigella flexneri JS 11839 is 0.79 µg/mL (≈ 1.45 µM). In the assay with Shigella sonnei, this compound yielded an MIC Shigella sonnei JS 11232 of 25 µg/mL (≈ 45.8 µM) and an MIC Shigella sonnei JS 11755 of 1.57 µg/mL (≈ 2.88 µM). The compound further displayed an MIC Salmonella typhi-murium SL 2136 against Salmonella typhi-murium of 100 µg/mL (≈ 183 µM). The MIC Proteus morganii in the assay with Proteus morganii was less than 0.4 µg/mL.
